In the NIST ThermoML archive (doi:10.1016/j.jct.2011.10.023):
Numbers after ± are expanded uncertainties.

Settings: Liquid, Vibrating tube method

CCCCCCO [hexan-1-ol]
mass density [kg/m3]
Settings	278.15 K	288.15 K	298.15 K	308.15 K	318.15 K	328.15 K	338.15 K	348.15 K	358.15 K
100 kPa	828.9 ± 2.4	822.1 ± 2.4	814.9 ± 2.4	807.8 ± 2.4	800.5 ± 2.4	793 ± 2.4	785.4 ± 2.4	777.6 ± 2.4	769.4 ± 2.4
1000 kPa	829.5 ± 2.4	822.7 ± 2.4	815.6 ± 2.4	808.4 ± 2.4	801.2 ± 2.4	793.7 ± 2.4	786.2 ± 2.4	778.4 ± 2.4	770 ± 2.4
5000 kPa	832 ± 2.4	825.3 ± 2.4	818.4 ± 2.4	811.4 ± 2.4	804.3 ± 2.4	797 ± 2.4	789.6 ± 2.4	782 ± 2.4	774.2 ± 2.4
10000 kPa	835 ± 2.4	828.5 ± 2.4	821.7 ± 2.4	814.8 ± 2.4	807.9 ± 2.4	800.8 ± 2.4	793.6 ± 2.4	786.2 ± 2.4	778.6 ± 2.4
15000 kPa	838 ± 2.4	831.6 ± 2.4	824.9 ± 2.4	818.2 ± 2.4	811.4 ± 2.4	804.4 ± 2.4	797.4 ± 2.4	790.2 ± 2.4	782.8 ± 2.4
20000 kPa	840.8 ± 2.4	834.6 ± 2.4	828 ± 2.4	821.4 ± 2.4	814.7 ± 2.4	807.9 ± 2.4	801 ± 2.4	794.1 ± 2.4	786.9 ± 2.4
25000 kPa	843.6 ± 2.4	837.4 ± 2.4	830.9 ± 2.4	824.5 ± 2.4	817.9 ± 2.4	811.2 ± 2.4	804.5 ± 2.4	797.6 ± 2.4	790.7 ± 2.4
30000 kPa	846.3 ± 2.4	840.2 ± 2.4	833.8 ± 2.4	827.5 ± 2.4	821 ± 2.4	814.4 ± 2.4	807.9 ± 2.4	801.2 ± 2.4	794.3 ± 2.4
35000 kPa	848.9 ± 2.4	842.9 ± 2.4	836.6 ± 2.4	830.3 ± 2.4	824 ± 2.4	817.6 ± 2.4	811.1 ± 2.4	804.6 ± 2.4	797.9 ± 2.4
40000 kPa	851.4 ± 2.4	845.5 ± 2.4	839.4 ± 2.4	833.2 ± 2.4	826.9 ± 2.4	820.6 ± 2.4	814.2 ± 2.4	807.8 ± 2.4	801.3 ± 2.5
45000 kPa	853.9 ± 2.4	848 ± 2.4	842 ± 2.4	835.9 ± 2.4	829.7 ± 2.4	823.5 ± 2.5	817.3 ± 2.5	811 ± 2.5	804.6 ± 2.5
50000 kPa	856.3 ± 2.4	850.5 ± 2.4	844.6 ± 2.5	838.5 ± 2.5	832.4 ± 2.5	826.4 ± 2.5	820.2 ± 2.5	814 ± 2.5	807.7 ± 2.5
55000 kPa	858.7 ± 2.4	853 ± 2.5	847.1 ± 2.5	841.1 ± 2.5	835.1 ± 2.5	829.1 ± 2.5	823.1 ± 2.5	817 ± 2.5	810.8 ± 2.5
60000 kPa	860.9 ± 2.5	855.4 ± 2.5	849.6 ± 2.5	843.5 ± 2.5	837.7 ± 2.5	831.6 ± 2.5	825.7 ± 2.5	819.7 ± 2.5	813.5 ± 2.5

CCCCCCCCCO [nonan-1-ol]
mass density [kg/m3]
Settings	278.15 K	288.15 K	298.15 K	308.15 K	318.15 K	328.15 K	338.15 K	348.15 K	358.15 K
100 kPa	836.9 ± 2.5	829.9 ± 2.5	823.2 ± 2.5	816.5 ± 2.5	809.8 ± 2.5	802.8 ± 2.5	795.7 ± 2.5	788.3 ± 2.5	780.9 ± 2.5
1000 kPa	837.4 ± 2.5	830.5 ± 2.5	823.7 ± 2.5	817.1 ± 2.5	810.4 ± 2.5	803.4 ± 2.5	796.4 ± 2.5	788.9 ± 2.5	781.6 ± 2.5
5000 kPa	839.7 ± 2.5	832.7 ± 2.5	826.3 ± 2.5	819.8 ± 2.5	813.2 ± 2.5	806.3 ± 2.5	799.4 ± 2.5	792.3 ± 2.5	785 ± 2.5
10000 kPa	842.5 ± 2.5	835.9 ± 2.5	829.4 ± 2.5	822.9 ± 2.5	816.5 ± 2.5	809.8 ± 2.5	803 ± 2.5	796.1 ± 2.5	789 ± 2.5
15000 kPa	845.1 ± 2.5	838.7 ± 2.5	832.3 ± 2.5	826 ± 2.5	819.7 ± 2.5	813.1 ± 2.5	806.5 ± 2.5	799.7 ± 2.5	792.9 ± 2.5
20000 kPa	847.8 ± 2.5	841.4 ± 2.5	835.1 ± 2.5	828.9 ± 2.5	822.7 ± 2.5	816.3 ± 2.5	809.8 ± 2.5	803.2 ± 2.5	796.5 ± 2.5
25000 kPa	850.3 ± 2.5	844 ± 2.5	837.9 ± 2.5	831.8 ± 2.5	825.6 ± 2.5	819.3 ± 2.5	813 ± 2.5	806.6 ± 2.5	799.9 ± 2.5
30000 kPa	852.8 ± 2.5	846.6 ± 2.5	840.5 ± 2.5	834.5 ± 2.5	828.5 ± 2.5	822.3 ± 2.5	816.1 ± 2.5	809.8 ± 2.5	803.3 ± 2.5
35000 kPa	855.3 ± 2.5	849.1 ± 2.5	843.1 ± 2.5	837.2 ± 2.5	831.3 ± 2.5	825.2 ± 2.5	819.1 ± 2.5	812.9 ± 2.5	806.6 ± 2.5
40000 kPa	857.6 ± 2.5	851.6 ± 2.5	845.7 ± 2.5	839.8 ± 2.5	834 ± 2.5	828 ± 2.5	822 ± 2.5	815.9 ± 2.5	809.7 ± 2.5
45000 kPa	859.9 ± 2.5	854 ± 2.5	848.1 ± 2.5	842.4 ± 2.5	836.6 ± 2.6	830.7 ± 2.6	824.8 ± 2.6	818.8 ± 2.6	812.8 ± 2.6
50000 kPa	862.2 ± 2.6	856.3 ± 2.6	850.5 ± 2.6	844.8 ± 2.6	839.2 ± 2.6	833.4 ± 2.6	827.6 ± 2.6	821.6 ± 2.6	815.7 ± 2.6
55000 kPa	864.4 ± 2.6	858.6 ± 2.6	852.9 ± 2.6	847.3 ± 2.6	841.7 ± 2.6	836 ± 2.6	830.2 ± 2.6	824.4 ± 2.6	818.6 ± 2.6
60000 kPa	866.4 ± 2.6	860.7 ± 2.6	855 ± 2.6	849.3 ± 2.6	844 ± 2.6	838.3 ± 2.6	832.7 ± 2.6	826.7 ± 2.6	821.2 ± 2.6
